Several values for one entry are separate records, joined by “and”; a condition that tells them apart may be missing. Equal entries are not always repeated. Where two headings read alike, the source gives them in different places.
Tests used:
[1] = tested on: zebrafish embryos; test: acute toxicity test from 48–120 hpf based on the OECD FET test; assay type: in vivo, zebrafish (Danio rerio); conditions: zebrafish embryos exposed 48–120 hpf; for LC50, class symbol: highest concentration set by water solubility
Source text: (§1) Twenty embryos per treatment were exposed to 5 concentrations of compound of interest in a 10× dilution factor from 48–120 hpf, which is the experimental time in which EDCs will be screened posteriorly. Embryos were exposed from 48–120 hpf rather than 0–96 hpf or 0–120 hpf to avoid unspecific toxicity outside of the EDC testing period, which have been chosen on the basis that endocrine pathways, e.g., thyroid metabolism, are not fully functional until 40–55 hpf in zebrafish embryos. Stock solutions of chemicals to be tested were freshly prepared in exposure medium. The highest concentration for each compound was selected according to its water solubility (Table S1). Exposures were performed in glass vessels to assure maximum bioavailability for hydrophobic compounds, and medium was not exchanged during the experiment.

[2] = tested on: brain aromatase (cyp19a1b); test: cyp19a1b gene expression (qPCR) in exposed zebrafish embryos; assay type: in vivo, zebrafish (Danio rerio); conditions: for LogEC50 (cyp19a1b mRNA): log of EC50 in μM, 48-120 h, our study; for EC50: zebrafish embryos exposed 48–120 hpf, mRNA by qPCR
[3] = tested on: cyp19a1b - fluorescence; conditions: 0-96 h, cited from earlier work; for LogEC50 (cyp19a1b - fluorescence): log of EC50 in μM
[4] = tested on: vitellogenin 1 (vtg1); test: vtg1 gene expression (qPCR) in exposed zebrafish embryos; conditions: for EC50: read-out: EC50 vtg1
[5] = tested on: vtg - blood; conditions: cited from earlier work
[6] = tested on: cytosolic sulfotransferase 2 family 2 (sult2st3); test: sult2st3 gene expression (qPCR) in exposed zebrafish embryos; assay type: in vivo, zebrafish (Danio rerio); conditions: for maximum FI / maximum average overexpression level above controls, sult2st3: exposed 48–120 hpf, times above controls; for EC50: read-out: EC50 sult2st3
[7] = tested on: cyp19a1b - mRNA; conditions: cited from earlier work; for LogEC50 (cyp19a1b - mRNA): log of EC50 in μM
[8] = tested on: cytochrome P450 2k22 (cyp2k22); test: cyp2k22 gene expression (qPCR) in exposed zebrafish embryos; conditions: for EC50: read-out: EC50 cyp2k22
[9] = target: iodothyronine deiodinase 2 (dio2); test: dio2 gene expression (qPCR) in exposed zebrafish embryos; assay type: in vivo, zebrafish (Danio rerio); conditions: for EC50: read-out: EC50 dio2
[10] = listed physicochemical property, source not given; cited from earlier work
[11] = acute toxicity test from 48–120 hpf based on the OECD FET test; assay type: in vivo, zebrafish (Danio rerio); conditions: in vivo; zebrafish embryos exposed 48–120 hpf
Source text: as §1

[12] = tested on: vtg - blood; conditions: cited from earlier work; for LogEC50 (vtg - blood): log of EC50 in μM
[13] = tested on: vtg - mRNA; conditions: 14 days (juveniles), cited from earlier work
[14] = tested on: ERE-GFP - fluorescence; conditions: 0-120 h, cited from earlier work
[15] = tested on: vtg1 - mRNA; conditions: 0-168 h; ref [10] (supplement list: Chen 2018); cited from earlier work
[16] = tested on: cyp19a1b - mRNA; conditions: 14 days (adults), cited from earlier work
[17] = tested on: cyp19a1b - vtg1 mRNA; test: estrogenic markers considered together (cyp19a1b - vtg1 mRNA), zebrafish embryos
[18] = tested on: transthyretin (ttr); test: ttr gene expression (qPCR) in exposed zebrafish embryos; assay type: in vivo, zebrafish (Danio rerio); conditions: exposed 48–120 hpf
[19] = tested on: tpo - mRNA; conditions: 48-120 h, ref [32] (supplement list), cited from earlier work
[20] = tested on: thyroid receptor α (trα); test: trα gene expression (qPCR) in exposed zebrafish embryos; assay type: in vivo, zebrafish (Danio rerio); conditions: exposed 48–120 hpf
[21] = tested on: thyroid peroxidase (tpo); test: tpo gene expression (qPCR) in exposed zebrafish embryos; assay type: in vivo, zebrafish (Danio rerio); conditions: for EC50: Danio rerio, read-out: EC50 tpo
[22] = tested on: sult2st3 - cyp2k22 mRNA; conditions: 96-120 h, ref [31] (supplement list), cited from earlier work
[23] = tested on: sult2st3 - cyp2k22 mRNA; test: androgenic markers considered together (sult2st3 - cyp2k22 mRNA), zebrafish embryos
[24] = ref [3] (supplement list: Brion 2012)
[25] = log of EC50 in μM, 48-120 h, our study
[26] = zebrafish embryos exposed 48–120 hpf, mRNA by qPCR
[27] = * mean of an approximate range, ref [21] (supplement list: Molina 2018)
[28] = log of EC50 in μM, ref [21] (supplement list)
[29] = FUL 1 µM co-exposed with E2 1 µM
[30] = NIL 1 µM co-exposed with TES 1 µM, reaching control levels

C[C@]12CCC(=O)C=C1CC[C@@H]1[C@@H]2CC[C@@]2(C)[C@H]1CC[C@]2(C)O [17α-MT, 17α-methyltestosterone]
LC50 [1]: 90200 nM
LogEC50 (cyp19a1b mRNA) [2]: -0.2076
EC50 [2]: 620 nM
EC50 [3, 24]: 40 nM
LogEC50 (cyp19a1b - fluorescence) ([3]; ref [3] (supplement list)): -1.398
LogEC50 (vtg1 mRNA) [4, 25]: 0.301
EC50 ([4]; zebrafish embryos exposed 48–120 hpf, mRNA by qPCR (END: downregulation)): 2000 nM
EC50 ([5]; 12 days (adults), ref [30] (supplement list: Ankley 2001), read-out: EC50 (vtg - blood)): 660 nM
EC50 ([5]; 21 days (adults), * mean of an approximate range, ref [29] (supplement list: Pawlowski 2004), read-out: EC50 (vtg1 - blood)): ~2 nM
LogEC50 (vtg - blood) ([5]; log of EC50 in μM, 12 days (adults), ref [30] (supplement list)): -0.1805
LogEC50 (vtg1 - blood) ([5]; log of EC50 in μM, 21 days (adults), ref [29] (supplement list)): -2.699
maximum FI / maximum average overexpression level above controls, sult2st3 [6]: 4.64–8.97
EC50 [6, 26]: 100 nM
EC50 ([7]; 0-144h, * mean of an approximate range, ref [28] (supplement list: Trant 2001)): ~170 nM
LogEC50 (cyp19a1b - mRNA) ([7]; 0-144h, ref [28] (supplement list)): -0.7696
EC50 [8, 26]: 50 nM
EC50 [9, 26]: 90 nM
Water solubility [10]: 33.90 µg/mL

CC(C)(c1ccc(O)cc1)c1ccc(O)cc1 [BPA, bisphenol A]
LC50 [11]: 41600 nM
EC50 ([2]; Danio rerio): 4990 nM
LogEC50 (cyp19a1b mRNA) [2]: 0.6981
EC50 ([12]; 14 days (adults), ref [14] (supplement list: Brian 2005)): 650 nM
EC50 ([12]; 28 days (juveniles), * mean of an approximate range, ref [13] (supplement list: Van den Belt 2004)): ~2630 nM
LogEC50 (vtg - blood) ([12]; 14 days (adults), ref [14] (supplement list)): -0.1871
LogEC50 (vtg - blood) ([12]; ref [13] (supplement list)): 0.42
EC50 [13, 27]: ~240 nM
LogEC50 (vtg - mRNA) [13, 28]: -0.6198
EC50 ([3]; * mean of an approximate range, ref [18] (supplement list: Le Fol 2017)): ~6250 nM
EC50 ([3]; ref [2] (supplement list: Petersen 2013)): 7400 nM
EC50 [3, 24]: 3300 nM
LogEC50 (cyp19a1b - fluorescence) ([3]; ref [2] (supplement list)): 0.8692
LogEC50 (cyp19a1b - fluorescence) ([3]; ref [3] (supplement list)): 0.5185
LogEC50 (cyp19a1b - fluorescence) ([3]; ref [18] (supplement list)): 0.7959
EC50 ([14]; ref [19] (supplement list: Green 2016)): 1230 nM
LogEC50 (ERE-GFP - fluorescence) ([14]; log of EC50 in μM, ref [19] (supplement list)): 0.08991
EC50 (vtg1 - mRNA), class symbol [15]: n.e.
EC50 [16, 27]: ~24 nM
LogEC50 (cyp19a1b - mRNA) [16, 28]: -1.62
EC50 (vtg1 - mRNA), class symbol ([4]; 48-120 h, our study): n.e.
effect on expression of vtg1 ([4]; exposed 48–120 hpf): did not affect
EC50 ([5]; 43 days (adults), * mean of an approximate range, ref [22] (supplement list: Sohoni 2001), read-out: EC50 (vtg - blood)): ~1750 nM
LogEC50 (vtg - blood) ([5]; log of EC50 in μM, 43 days (adults), ref [22] (supplement list)): 0.243
EC50 ([7]; 0-72 h, ref [20] (supplement list: Saeed 2016)): 220 nM
EC50 ([7]; 72-96 h, * mean of an approximate range, ref [5] (supplement list: Chung 2011)): ~3000 nM
LogEC50 (cyp19a1b - mRNA) ([7]; 0-72 h, ref [20] (supplement list)): -0.6576
LogEC50 (cyp19a1b - mRNA) ([7]; 72-96 h, ref [5] (supplement list)): 0.4771

CC/C(=C(/CC)c1ccc(O)cc1)c1ccc(O)cc1 [DES, diethylstilbestrol]
LC50, class symbol [1]: -
EC50 ([2]; Danio rerio): 10 nM
LogEC50 (cyp19a1b mRNA) [2]: -2
EC50 [3, 24]: 0.01 nM
LogEC50 (cyp19a1b - fluorescence) ([3]; ref [3] (supplement list)): -5
EC50 ([7]; 2-48 h, * mean of an approximate range, ref [6] (supplement list: Kishida 2001)): ~5.5 nM
LogEC50 (cyp19a1b - mRNA) ([7]; 2-48 h, ref [6] (supplement list)): -2.26

C[C@]12CC[C@@H]3c4ccc(O)cc4C[C@@H](CCCCCCCCC[S+]([O-])CCCC(F)(F)C(F)(F)F)[C@H]3[C@@H]1CC[C@@H]2O (stereo partly shown) [FUL, fulvestrant]
LC50, class symbol [1]: -
FI cyp19a1b after co-exposure with antagonist [2, 29]: 57.17
rescue effects at 10 µM antagonist ([17]; FUL 10 µM co-exposed with E2): no more rescue effects than those observed at 1 µM
FI vtg1 after co-exposure with antagonist [4, 29]: 205.50
rescue effect: decrease of vtg1 compared to single exposure of E2 [4, 29]: 47.89%

Cn1cc[nH]c1=S [MMI, methimazole]
effect on ttr expression [18]: None of the other three remaining thyroid markers analyzed were affected
EC50 ([19]; main text refs 25, 29): 487000 nM
LogEC50 (tpo - mRNA) ([19]; log of EC50 in μM): 2.688
effect on trα expression [20]: None of the other three remaining thyroid markers analyzed were affected
EC50 [21, 26]: 397000 nM
LogEC50 (tpo - mRNA) [21, 25]: 2.599
effect on dio2 expression ([9]; exposed 48–120 hpf): None of the other three remaining thyroid markers analyzed were affected
Water solubility [10]: 277500.00 µg/mL

C[C@]12CC[C@H]3[C@@H](CCC4=CC(=O)CC[C@@H]43)[C@@H]1CC[C@@H]2O [NAN, nandrolone]
LC50 [11]: 497000 nM
EC50 ([2]; Danio rerio): 200 nM
EC50 ([4]; Danio rerio): 1720 nM
EC50 ([6]; Danio rerio): 130 nM
maximum FI / maximum average overexpression level above controls, sult2st3 [6]: 4.64–8.97
EC50 ([8]; Danio rerio): 110 nM
EC50 ([9]; Danio rerio): 80 nM

CC1(C)NC(=O)N(c2ccc([N+](=O)[O-])c(C(F)(F)F)c2)C1=O [NIL, nilutamide]
LC50 [11]: 32800 nM
rescue of TES-induced sult2st3 overexpression [6, 30]: totally rescued
rescue of TES-induced cyp2k22 overexpression [8, 30]: totally rescued
Water solubility [10]: 4.19 µg/mL

C[C@]12CC[C@H]3[C@@H](CCC4=CC(=O)CC[C@@]43C)[C@@H]1CC[C@@H]2O [TES, testosterone]
LogEC50 (sult2st3 - cyp2k22 mRNA) ([22]; log of EC50 in μM): -1.222
EC50 ([22]; read-out: EC50 (sult2st3 - cyp2k22 mRNA)): 60 nM
EC50 ([17]; Danio rerio, read-out: EC50 (cyp19a1b - vtg1 mRNA)): 1110 nM
LogEC50 (cyp19a1b - vtg1 mRNA) [17, 25]: 0.04532
EC50 [3, 24]: 1030 nM
LogEC50 (cyp19a1b - fluorescence) ([3]; ref [3] (supplement list)): 0.01284
EC50 ([23]; Danio rerio, read-out: EC50 (sult2st3 - cyp2k22 mRNA)): 440 nM
LogEC50 (sult2st3 - cyp2k22 mRNA) [23, 25]: -0.3565
EC50 ([4]; Danio rerio): 1460 nM
EC50 ([6]; Danio rerio): 140 nM
maximum FI / maximum average overexpression level above controls, sult2st3 [6]: 7.33 and 4.64–8.97
EC50 ([7]; 0-72 h, * mean of an approximate range, ref [27] (supplement list: Mouriec 2009)): ~1000 nM
LogEC50 (cyp19a1b - mRNA) ([7]; 0-72 h, ref [27] (supplement list)): 0
EC50 ([8]; Danio rerio): 740 nM
maximum average overexpression level above controls, cyp2k22 ([8]; exposed 48–120 hpf, times above controls): 4.01
EC50 [21]: 20 nM

C=CC1(C)OC(=O)N(c2cc(Cl)cc(Cl)c2)C1=O (stereo not shown) [VIN, vinclozolin]
LC50, class symbol [1]: -
